Source: patent publication US20140107109A1, “AMINO-DIHYDROTHIAZINE AND AMINO-DIOXIDO DIHYDROTHIAZINE COMPOUNDS AS BETA-SECRETASE ANTAGONISTS AND METHODS OF USE” (Amgen Inc., priority 2012, published 2014)
Where two headings read alike, the source gives them in different places.

Tests used:
Cathepsin D (Cat D) = molecular target: T1, Cathepsin D (Cat D) (Homo sapiens, UniProt P07339); experiment: In vitro enzymatic Cathepsin D (Cat D) FRET assay; format: biochemical; details: read-out: CatD IC50
T1 construct: Recombinant Cat D was expressed in CHO cells; made in house; host or cells: CHO cells
Description: In Vitro Enzymatic Cathepsin D (Cat D) FRET (Fluorescence Resonance Energy Transfer) Assay Recombinant Cat D was expressed in CHO cells. […] The Cat D enzyme (9 nM) is pre-incubated for one hour with inhibitors, typically in about 1 uL of DMSO according to a serial dilution, is added thereto. […] The FRET assay is terminated with by addition of Tris buffer, which raises the pH to neutrality, and the fluorescence is determined. The FRET substrate is a peptide with commercially available fluorophore and quencher, on opposite sides of the BACE cleavage site. The Cat D substrate peptide sequence is based on sequence #1 of Table 1 from Gulnik et al. […] Alternatively, a Cat D assay may also be run according to the procedure described in the article, Characterization of new fluorgenic substrates for the rapid and sensitive assay of cathepsin E and cathepsin D, J. Biochem., 125:1137, 1999. In addition, the cathepsin D and cathepsin E assays are described in PCT publication WO2011069934. This WIPO publication describes BACE inhibitor compounds having an amide linker connecting two aromatic groups with extremely poor cathepsin D and/or cathepsin E inhibitory activity (see Table 2). Where available, the in-vitro Cat D FRET assay data for each of the Examples, conducted by the first procedure, is provided.

[1] = molecular target: Beta Secretase enzyme (BACE1) (Homo sapiens, UniProt P56817); experiment: In vitro enzymatic BACE FRET assay; format: biochemical; details: read-out: BACE1 FRET assay IC50
Description: In Vitro Enzymatic BACE FRET (Fluorescence Resonance Energy Transfer) Assay (Enzyme Assay Data in the Example Tables I and II)
The assay buffer used in this screen is 0.05 M acetate, pH 4.2, 10% DMSO final, 100 uM genapol (which is a nonionic detergent, below its Critical Micelle Concentration). […] This assay is effectively started by the addition of FRET substrate (50 nM) and the combination is incubated for one hour. The FRET assay is terminated with by addition of Tris buffer, which raises the pH to neutrality, and the fluorescence is determined. The FRET substrate is a peptide with commercially available fluorophore and quencher, on opposite sides of the BACE cleavage site. Proteolytic cleavage of the FRET substrate releases quenching of fluorescence (excitation […] and […]).

[2] = system: Aβ40 in conditioned medium of cells stably expressing Amyloid Precursor Protein (APP); experiment: In vitro BACE cell-based assay (HEK cell assay), Aβ40 sandwich ELISA; details: Homo sapiens, HEK293
Description: In Vitro BACE Cell-Based Assay
The cell-based assay measures inhibition or reduction of Aβ40 in conditioned medium of test compound treated cells expressing amyloid precursor protein.
Cells stably expressing Amyloid Precursor Protein (APP) were plated at a density of 40K cells/well in 96 well plates (Costar). The cells were cultivated for 24 hours at 37C. and 5% CO2 in DMEM supplemented with 10% FBS. The test compounds were then added to cells in 10-point dose response concentrations with the starting concentration being either 100 μM or 10 μM. The compounds were diluted from stock solutions in DMSO and the final DMSO concentration of the test compounds on cells was 0.1%. After 24 h of incubation with the test compounds the supernatant conditioned media was collected and the Aβ 40 levels were determined using a sandwich ELISA. The IC50 of the compound was calculated from the percent of control or percent inhibition of Aβ 40 as a function of the concentration of the test compound.
The sandwich ELISA to detect Aβ 40 was performed in 96 well microtiter plates, which were pre-treated with goat anti-rabbit IgG (Pierce). The capture and detecting antibody pair that were used to detect Aβ 40 from cell supernatants were affinity purified pAb40 (Biosource) and biotinylated 6E10 (Signet Labs Inc.), respectively. The optimal concentration for the pAb40 antibody was 3 μg/ml in Superblock/TBS (Pierce) that was supplemented with 0.05% Tween 20 (Sigma). Optimal concentration for the detection antibody 6E10-biotinylated was 0.5 μg/ml in Superblock/TBS (Pierce) that had been supplemented with 2% normal goat serum and 2% normal mouse serum.
Cellular supernatants were incubated with the capture antibody for 3 h at 4° C., followed by 3 wash steps in TBS-tween (0.05%). The detecting antibody incubation was for 2 h at 4° C., again followed by the wash steps as described previously. The final readout of the ELISA is Time-Resolved Fluorescence (counts per minute) using Delfia reagents Streptavidin-Europium and Enhancement solutions (Perkin Elmer) and the Victor 2 multilabel counter (Perkin Elmer).

Beta Secretase enzyme (BACE1), sequence (P56817 46-501): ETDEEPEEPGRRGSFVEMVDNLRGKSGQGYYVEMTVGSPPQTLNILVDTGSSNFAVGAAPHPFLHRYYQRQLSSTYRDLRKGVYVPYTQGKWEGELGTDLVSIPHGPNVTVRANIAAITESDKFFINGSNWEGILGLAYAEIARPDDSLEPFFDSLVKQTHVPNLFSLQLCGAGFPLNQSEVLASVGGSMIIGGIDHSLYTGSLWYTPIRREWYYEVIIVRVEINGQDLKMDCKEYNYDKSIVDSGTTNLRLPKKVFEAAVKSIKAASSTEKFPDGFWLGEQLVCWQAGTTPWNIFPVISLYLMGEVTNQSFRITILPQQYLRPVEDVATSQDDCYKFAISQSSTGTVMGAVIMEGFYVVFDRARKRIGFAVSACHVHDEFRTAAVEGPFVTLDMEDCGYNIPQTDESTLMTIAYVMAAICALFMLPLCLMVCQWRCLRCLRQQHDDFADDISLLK
T1 sequence (P07339 65-412, species assumed): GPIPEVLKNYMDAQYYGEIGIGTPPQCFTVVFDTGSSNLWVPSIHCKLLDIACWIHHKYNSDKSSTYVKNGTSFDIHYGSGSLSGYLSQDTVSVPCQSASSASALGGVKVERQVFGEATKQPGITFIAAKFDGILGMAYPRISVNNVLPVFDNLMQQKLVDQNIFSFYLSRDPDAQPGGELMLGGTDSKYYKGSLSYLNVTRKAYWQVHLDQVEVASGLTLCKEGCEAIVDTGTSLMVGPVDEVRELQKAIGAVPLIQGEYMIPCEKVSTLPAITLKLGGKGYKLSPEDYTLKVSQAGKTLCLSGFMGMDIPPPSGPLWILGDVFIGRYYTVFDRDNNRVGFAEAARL

IC50 (Cathepsin D (Cat D))	IC50 ([1]; average IC50, enzyme assay)	IC50 ([2]; average IC50, HEK cell assay)	IC50 [1]	IC50 [2]	IC50 ([2]; average IC50, cell assay)	IC50 ([2]; Aβ40, 24 h incubation)	Compound
307000 nM	2.4 nM	5.5 nM					CC1(C)C(N)=N[C@](C)(c2cc(NC(=O)c3ccc(C(F)F)cn3)ccc2F)C(F)S1(=O)=O (stereo partly drawn) [Example 334, N-(3-((3R)-5-amino-2-fluoro-3,6,6-trimethyl-1,1-dioxido-3,6-dihydro-2H-1,4-thiazin-3-yl)-4-fluorophenyl)-5-(difluoromethyl)-2-pyridinecarboxamide]
61800 nM			2.97 nM	5.8 nM			Cc1cc(OC(F)F)cnc1C(=O)Nc1ccc(F)c([C@@]2(C)N=C(N)C3(CCC3)S(=O)(=O)[C@@H]2F)c1 [Example 132, N-(3-((6S,7R)-9-amino-6-fluoro-7-methyl-5,5-dioxido-5-thia-8-azaspiro[3.5]non-8-en-7-yl)-4-fluorophenyl)-5-(difluoromethoxy)-3-methylpicolinamide]
440000 nM			3.54 nM	57 nM			C=C(C)c1cc(Cl)cnc1C(=O)Nc1ccc(F)c([C@]2(CF)CS(=O)(=O)C(C)(C)C(N)=N2)c1 [Example 407, N-(3-((3S)-5-amino-3-(fluoromethyl)-6,6-dimethyl-1,1-dioxido-3,6-dihydro-2H-1,4-thiazin-3-yl)-4-fluorophenyl)-5-chloro-3-(1-methylethenyl)-2-pyridinecarboxamide]
65000 nM	4.47 nM				8.9 nM		CC1(C)C(N)=N[C@](C)(c2cc(Nc3ncc(CO)c4cc(Cl)cnc34)ccc2F)CS1(=O)=O [Example 191, (R)-5-amino-3-(5-((3-chloro-5-(hydroxymethyl)-1,7-naphthyridin-8-yl)-amino)-2-fluorophenyl)-3,6,6-trimethyl-3,6-dihydro-2H-1,4-thiazine 1,1-dioxide]
90400 nM			0.59 nM			7.5 nM	CC1(C)C(N)=N[C@](C)(c2cc(Nc3nccc4cc(Cl)cnc34)ccc2F)CS1(=O)=O [Example 45, N-(3-((3R)-5-amino-3,6,6-trimethyl-1,1-dioxido-3,6-dihydro-2H-1,4-thiazin-3-yl)-4-fluorophenyl)-3-chloro-1,7-naphthyridin-8-amine]
680000 nM	2070 nM						COc1cnc2c(Oc3ccc(F)c([C@]4(C)CS(=O)(=O)C(C)(C)C(N)=N4)c3)nccc2c1 [Example 305, (5R)-5-(2-fluoro-5-((3-methoxy-1,7-naphthyridin-8-yl)oxy)phenyl)-2,2,5-trimethyl-5,6-dihydro-2H-1,4-thiazin-3-amine 1,1-dioxide]
222000 nM	125 nM						CC1(C)C(N)=N[C@](C)(c2cc(Oc3ncccn3)ccc2F)CS1(=O)=O [Example 288, (5R)-5-(2-fluoro-5-(2-pyrimidinyloxy)phenyl)-2,2,5-trimethyl-5,6-dihydro-2H-1,4-thiazin-3-amine 1,1-dioxide]
37300 nM	1190 nM						C[C@@]1(c2cc(Br)ccc2F)CS(=O)(=O)C2(CC(O)C2)C(N)=N1 (stereo partly drawn) [Example 112, (R)-9-amino-7-(5-bromo-2-fluorophenyl)-2-hydroxy-7-methyl-5-thia-8-azaspiro[3.5]non-8-ene 5,5-dioxide]
112000 nM			1.74 nM				CC1(C)C(N)=N[C@](C)(c2cc(NC(=O)c3nn(C(F)F)cc3Cl)ccc2F)CS1(=O)=O [Example 106, (R)—N-(3-(5-amino-3,6,6-trimethyl-1,1-dioxido-3,6-dihydro-2H-1,4-thiazin-3-yl)-4-fluorophenyl)-4-chloro-1-(difluoromethyl)-1H-pyrazole-3-carboxamide]
80700 nM	1.01 nM						CC1(C)C(N)=N[C@](C)(c2cc(Nc3ncnc4cc(C#N)cnc34)ccc2F)C(F)S1(=O)=O (stereo partly drawn) [Example 229, 4-((3-((3R)-5-amino-2-fluoro-3,6,6-trimethyl-1,1-dioxido-3,6-dihydro-2H-1,4-thiazin-3-yl)-4-fluorophenyl)amino)pyrido[3,2-d]pyrimidine-7-carbonitrile]
